Experimental data as given in patent US6175020A, “Spirodiamino acid scaffold for combinatorial synthesis” (Pharmacopeia, Inc., priority 1999, dated 2001).

Molecular target: plasmepsin II (Plasmodium falciparum, UniProt P46925)
Assay: Biological Assay for Plasmepsin II (EDANS fluorescence)
Type: biochemical
Conditions: 4 nM plasmepsin II, 6 μM plasmepsin substrate, pH 5.0, 10 minutes at 25° C.
Protocol: Biological Assay for Plasmepsin II
The assay mix contained 50 mM sodium acetate (pH 5.0), 1 mg/ml BSA, 0.01% Tween 20, 12.5% glycerol, 18% DMSO and 12 μM plasmepsin substrate. Twenty five μL of the assay mix is added to each well of the 96-well microtiter plate containing dried down bead eluate or empty control wells. The plates are then sonicated and mixed. Then 25 μL of 8 nM plasmepsin II which is in 50 mM sodium acetate (pH 5.0), 1 mg/ml BSA, 0.01% Tween 20, and 12.5% glycerol, is added to the assay mix. The final concentrations are 4 nM plasmepsin II, 6 μM plasmepsin substrate, 9% DMSO, 50 mM sodium acetate (pH 5.0), 1 mg/ml BSA, 0.01% Tween 20, and 12.5% glycerol. The reaction is incubated for 10 minutes at 25° C. and then quenched by the addition of 25 μL of 1 M Tris (pH 8.5) and 50% DMSO to achieve a final concentration of 0.33 M Tris and 23% DMSO. The EDANS fluorescence was measured using the Tecan, SLT FLUOSTAR® fluorescence plate reader with an excitation filter of 350 nm and an emission filter 510 nm. The background was determined by 25 μL of 50 mM sodium acetate (pH 5.0), 1 mg/ml BSA, 0.01% Tween 20, and 12.5% glycerol without enzyme. Compound 23 was active at <1 millimolar concentration.

Sequence of plasmepsin II (P46925 125-453): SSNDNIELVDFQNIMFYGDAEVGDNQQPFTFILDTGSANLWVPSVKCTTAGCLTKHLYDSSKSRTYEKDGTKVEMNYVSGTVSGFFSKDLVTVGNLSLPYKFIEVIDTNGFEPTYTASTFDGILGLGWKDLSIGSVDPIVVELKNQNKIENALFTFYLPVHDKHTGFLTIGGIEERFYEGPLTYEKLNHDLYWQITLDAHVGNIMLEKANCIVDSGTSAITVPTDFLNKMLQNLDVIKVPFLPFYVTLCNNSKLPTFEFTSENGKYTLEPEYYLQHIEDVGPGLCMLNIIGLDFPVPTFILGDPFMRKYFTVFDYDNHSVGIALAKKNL

concentration at which compound was active: < 1 millimolar | IC50 (read-out: IC50 (plasmepsin inhibitor)): < 1000 µM
Structure (SMILES): C=CCOC(=O)N1C(CC(=O)NCCc2cc(OC)cc(OC)c2)CCC12CCCC2CNC(=O)C[C@H](O)[C@H](CC(C)C)NC(=O)OC(C)(C)C (relative stereo) [Compound 23]
